For orientation: solubility means the dissolved amount per volume that the medium holds.

“Also recorded” adds a separate entry of the source. Read-outs that look alike come from different tables or passages of the source.

Results on three compounds are retold here after patent US10077239B2, “Crystalline forms of a hepatitis B antiviral agent” (NOVIRA THERAPEUTICS, INC, priority 2015, dated 2018).

What all share (type): physicochemical
Series [1] is described as follows: Solubility of the crystalline forms.
A short description of another series: pH solubility profile.
Series [2] in a line: Hygroscopicity by dynamic vapor sorption (DVS). Conditions: for Hydrophilicity / hygroscopicity rating from DVS / Hysteresis between initial and final state, DVS: 37° C.; for Water (moisture) uptake, DVS: from 0% to 100% RH at 37° C. How it is done: DVS The temperature and RH are pre-set according to the initial temperature and RH. Method at 37° C.: • Equilibrating 20 min at 50% • Set from 50% to 0% • Equilibrating 20 min at 0% RH • Set from 0% to 100% by step of 10% RH (50% RH per hour) • 3 hours at 100% RH • From 100% RH to 0% RH by step of 10% RH (−50% RH per hour) • Equilibrating 20 min at 0% RH • Set from 0% to 50% • Equilibrating 20 min at 50% RH Particle Size Distribution (Malvern)

The nature of series [3]: Thermal analysis (DSC/TGA/hot stage): decomposition. How it is done:
Thermal Analysis (DSC/TGA/Hot Stage) An accurate amount of compound (mg scale) is set up in 40 μL Al crucible with perforated lids. The heating rate is 20° C./min in a nitrogen gas flow. The heating ranged from 30 to 400° C.

Series [4] can be described thus: Stability under simulated storage conditions: XRPD under temperature and relative humidity. As to conditions: for XRPD under RH: phase transition: 10% to 80% RH at 25° C. How it is done:
Stability Under Simulated Storage Conditions: XRPD The stability of crystalline Forms I and XVI was characterized by XRPD under temperature and relative humidity conditions that stimulate potential storage conditions. XRPD XRPD was performed on a PHILIPS PANalytical, X'Pert Pro. diffractometer The experimental conditions are the following: • Configuration Bragg-Brentano: θ−θ • Source: Cu with Kα1 at λ=1.5406 Å. • The power supply works at 45 kV and 40 mA. • Detector: PSD X'Celerator in scanning mode • Sample temperature: room temperature • Angular variation: from 2θ=3° to 45° • Step size [° 2θ]: 0.008 • Scan step time (in s): 13 39 • Duration: 20 min according to the diffraction intensity A few mg of sample were prepared on a silicon plate without any special treatment other than a slight pressure to obtain a flat and homogeneous surface for reproducible and repeatable results.

Series [5] is described as follows: Particle size distribution (Malvern laser diffraction). Conditions: for Particle size D10 after sonication / Particle size D50 after sonication / Particle size D90 after sonication: after ultrasound treatment (40 seconds); for Particle size D10 / Particle size D50 / Particle size D90: without ultrasound treatment. How it is done: • Equilibrating 20 min at 50% • Set from 50% to 0% • Equilibrating 20 min at 0% RH • Set from 0% to 100% by step of 10% RH (50% RH per hour) • 3 hours at 100% RH • From 100% RH to 0% RH by step of 10% RH (−50% RH per hour) • Equilibrating 20 min at 0% RH • Set from 0% to 50% • Equilibrating 20 min at 50% RH Particle Size Distribution (Malvern) A total of 3 measurements by batch were made to ensure repeatable and reproducible results. • Dispersant: Silicon oil. A good dispersion is observed in this media and Compound (1) is not soluble in silicon oil. • Stirring: 2000 rpm • lens: 300RF • Analysis model: polydisperse • Presentation code: 3OAE • Number of measurement sweeps: 5000 • Density: 1.000 g·cm^3 • With or without stage of ultrasound

Series [6] can be described thus: Stability under simulated storage conditions: XRPD under temperature and relative humidity. Conditions: for XRPD under temperature: phase transition: temperature increased from 25° C. to 160° C.

On to `O=C(Nc1cc(F)c(F)c(F)c1)c1ccc(F)c(S(=O)(=O)N2CCC(O)CC2)c1` [Compound (1), 4-fluoro-3-((4-hydroxypiperidin-1-yl)sulfonyl)-N-(3,4,5-trifluorophenyl)benzamide], for which, in series [1] (silicon oil, dispersant of the particle size measurement), the “Solubility in silicon oil” value was “not soluble”.

In the case of `O=C(Nc1cc(F)c(F)c(F)c1)c1ccc(F)c(S(=O)(=O)N2CCC(O)CC2)c1` [Form I, 4-fluoro-3-((4-hydroxypiperidin-1-yl)sulfonyl)-N-(3,4,5-trifluorophenyl)benzamide], the solubility in series [1] (organic solvent or mixture, MTBE, 25° C., read-out: Solubility in MTBE) is less than 2000 µg/mL. For the same compound, the solubility in series [1] (water, 25° C., read-out: Solubility in water) was less than 2000 µg/mL. In addition, in “pH solubility profile”, the pH solubility profile result is reported as “Slightly soluble”. In series [2], the “Hydrophilicity / hygroscopicity rating from DVS” value is recorded as “slightly hydrophilic; also recorded: low hydrophilicity”; the “Hysteresis between initial and final state, DVS” value was “No hysteresis”; the “Water (moisture) uptake, DVS” value came to 1.5%. The “Hydrophilicity / hygroscopicity rating from DVS” value in series [2] (listed as FI) stood at 100% ⋄ slightly hydrophilic. In addition, the “Decomposition (degradation) temperature” value in series [3] is “above 300 °C”. Further, the “Decomposition (degradation) temperature” value in series [3] (listed as FI) was “Decomposition >300 °C”. Further, the “XRPD under RH: phase transition” value in series [4] was “No transition phase from 10%”. For the same compound, the “Impact of relative humidity on the crystalline phase (XRPD)” value in series [4] (RH 7-30-90% at 25 or 40° C.) is given as “no impact”. Further, in series [5], the “Particle size D10 after sonication” value is 4.7 μm, the “Particle size D50 after sonication” value came out at 14.2 μm, the “Particle size D90 after sonication” value is recorded as 66.9 μm and the “Particle size D10” value amounted to 5.8 μm. Also, in series [5], the “Particle size D50” value is 69.1 μm and the “Particle size D90” value is reported as 342.6 μm. Moreover, in series [5] (listed as FI), the “Particle size D10 after sonication” value is “D10 = 4.7 μm”, the “Particle size D50 after sonication” value is on record as “D50 = 14.2 μm” and the “Particle size D90 after sonication” value is recorded as “D90 = 66.9 μm”. Moreover, the “Temperature from which the phase transition starts (XRPD)” value in series [6] (heating from 25° C. to 160° C.) was 100 °C. Moreover, in series [6] (heating from 25° C. to 160° C., not reversible), the “Temperature at which the phase transition is complete (XRPD)” value was 160 °C. Also, the “XRPD under temperature: phase transition” value in series [6] is listed as “sensitive to the temperature”. Further, the “XRPD under temperature: phase transition” value in series [6] (listed as FI) is recorded as “Complete transition towards”.

`O=C(Nc1cc(F)c(F)c(F)c1)c1ccc(F)c(S(=O)(=O)N2CCC(O)CC2)c1` [Form XVI, 4-fluoro-3-((4-hydroxypiperidin-1-yl)sulfonyl)-N-(3,4,5-trifluorophenyl)benzamide]: the “Solubility in MTBE” value in series [1] (MTBE, 25° C.) was “In MTBE <2 g/L at 25 °C”. Also, the Solubility in water result in series [1] (water, 25° C.) is “In Water <2 g/L at 25 °C”. In addition, the pH solubility profile entry in the series “pH solubility profile” was “Slightly soluble”. Further, in series [2], the “Hydrophilicity / hygroscopicity rating from DVS” value is “slightly hydrophilic; also recorded: low hydrophilicity”; the “Hysteresis between initial and final state, DVS” value is “No hysteresis”; the “Water (moisture) uptake, DVS” value was determined as 0.8%. Also, in series [2] (listed as FXVI), the “Hydrophilicity / hygroscopicity rating from DVS” value stood at 100% ⋄ slightly hydrophilic and the “Water (moisture) uptake, DVS” value is “Uptake of 0.8% from 0 to”. Moreover, the “Decomposition (degradation) temperature” value in series [3] was “above 300 °C”. The “Decomposition (degradation) temperature” value in series [3] (listed as FXVI) is “Decomposition >300 °C”. The “XRPD under RH: phase transition” value in series [4] is listed as “No transition phase from 10%”. In series [4] (RH 7-30-90% at 25 or 45° C.), the “Impact of relative humidity on the crystalline phase (XRPD)” value is reported as “no impact”. In series [4] (XRPD monitoring at higher temperatures and varying humidity), the “Stability of the crystalline form with respect to temperature and relative humidity” value is “high stability; also recorded: maintains its crystallinity; also recorded: highly stable”. In series [5], the “Particle size D10 after sonication” value was 4.2 μm, the “Particle size D50 after sonication” value is 20.0 μm, the “Particle size D90 after sonication” value was determined as 37.5 μm and the “Particle size D10” value was determined as 9.8 μm. In series [5], the “Particle size D50” value stood at 23.7 μm and the “Particle size D90” value came out at 45.8 μm. For the same compound, in series [5] (listed as FXVI), the “Particle size D10 after sonication” value is “D10 = 4.2 μm”, the “Particle size D50 after sonication” value is given as “D50 = 20.0 μm” and the “Particle size D90 after sonication” value is “D90 = 37.5 μm”. Besides, in series [6], the “XRPD under temperature: phase transition” value was “no phase transition”. Further, in series [6] (listed as FXVI), the “XRPD under temperature: phase transition” value is reported as “No transition phase until”.
